Assay results taken from the supplement of paper PMC8617591.

Tests used:
[1] = tested on: Mycobacterium tuberculosis Erdman (autoluminescent); test: Einf, fitted maximum growth inhibition (fraction); higher = stronger maximal inhibition
Protocol: (§1)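 DiaMOND dose responses (10 doses, 1.5- or 2-fold spacing, equipotent around IC90) of autoluminescent M. tuberculosis Erdman in 8 in vitro models. Read-out is OD600, or luminescence for the intracellular (J774) and dormancy models, background-subtracted and normalised to untreated wells. A 3-parameter Hill fit gives Einf and AUC25 (area to IC25 normalised by IC25); GRinf comes from a Hill fit of the Hafner normalised growth rate. Biological replicates passing QC are averaged. Single drugs only.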

[2] = tested on: Mycobacterium tuberculosis Erdman (autoluminescent); test: AUC25, normalised area under dose response up to IC25 (fraction (0-1)); higher = more potent at low dose
Protocol: as §1

[3] = tested on: Mycobacterium tuberculosis Erdman (autoluminescent); test: GRinf, maximum normalised growth rate inhibition (unitless (-1 to 1)); higher = less effect (negative = killing)
Protocol: as §1

[4] = tested on: Mycobacterium tuberculosis Erdman (autoluminescent); test: FIC90 (Loewe) at 90% inhibition (log2); higher = more antagonistic
Protocol: (§2)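 DiaMOND equipotent two-drug combination dose responses against autoluminescent M. tuberculosis Erdman in 8 in vitro models. Read-out is OD600, or luminescence for the intracellular and dormancy models, normalised to untreated wells. Hill-fit Einf, AUC25 and GRinf are potency metrics; FIC50 and FIC90 are Loewe-additivity fractional inhibitory concentrations, given as log2 (negative = synergy). Replicates are averaged.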

[5] = tested on: Mycobacterium tuberculosis Erdman (autoluminescent); test: FIC50 (Loewe) at 50% inhibition (log2); higher = more antagonistic
Protocol: as §2

[6] = tested on: Mycobacterium tuberculosis Erdman (autoluminescent); test: Einf, fitted maximum growth inhibition of combination (fraction); higher = stronger maximal inhibition
Protocol: as §2

[7] = tested on: Mycobacterium tuberculosis Erdman (autoluminescent); test: AUC25, normalised area under dose response up to IC25 (fraction (0-1)); higher = more potent at low dose; remark: listed apart in the source
Protocol: as §2

[8] = tested on: Mycobacterium tuberculosis Erdman (autoluminescent); test: GRinf, maximum normalised growth rate inhibition (unitless (-1 to 1)); higher = less effect (negative = killing); remark: listed apart in the source
Protocol: as §2

[9] = in vitro model: acidic pH 5.7, time point: constant (~7 days, model-specific)
[10] = in vitro model: acidic pH 5.7, time point: terminal (~4-5 doublings, model-specific)
[11] = in vitro model: butyrate, time point: constant (~7 days, model-specific)
[12] = in vitro model: butyrate, time point: terminal (~4-5 doublings, model-specific)
[13] = in vitro model: cholesterol 0.05 mM, time point: constant (~7 days, model-specific)
[14] = in vitro model: cholesterol 0.05 mM, time point: terminal (~4-5 doublings, model-specific)
[15] = in vitro model: cholesterol-high 0.2 mM, time point: constant (~7 days, model-specific)
[16] = in vitro model: cholesterol-high 0.2 mM, time point: terminal (~4-5 doublings, model-specific)
[17] = in vitro model: dormancy (butyrate + nitrate, low O2), time point: constant (~7 days, model-specific)
[18] = in vitro model: dormancy (butyrate + nitrate, low O2), time point: terminal (~4-5 doublings, model-specific)
[19] = in vitro model: intracellular J774, time point: constant = terminal
[20] = in vitro model: standard 7H9 glycerol, time point: constant = terminal
[21] = in vitro model: valerate, time point: constant (~7 days, model-specific)
[22] = in vitro model: valerate, time point: terminal (~4-5 doublings, model-specific)

For `CO[C@H]1/C=C/O[C@@]2(C)Oc3c(C)c(O)c4c(O)c(c(/C=N/N5CCN(C)CC5)c(O)c4c3C2=O)NC(=O)/C(C)=C\C=C\[C@H](C)[C@H](O)[C@@H](C)[C@@H](O)[C@@H](C)[C@H](OC(C)=O)[C@@H]1C` [rifampicin], the Einf [1, 9] was 0.838, the Einf [1, 10] was 0.98 and the Einf [1, 11] was 0.892. The Einf [1, 12] was 0.956, the Einf [1, 13] was 0.503 and the Einf [1, 14] was 0.855. It also gave an Einf [1, 15] of 0.927, an Einf [1, 16] of 0.999 and an Einf [1, 17] of 0.901. It also gave an Einf [1, 18] of 0.978, an Einf [1, 19] of 0.971 and an Einf [1, 20] of 0.877. The Einf [1, 21] was 0.86, the Einf [1, 22] was 0.943 and the AUC25 [2, 9] was 0.0889. The AUC25 [2, 10] was 0.0838, the AUC25 [2, 11] was 0.112 and the AUC25 [2, 12] was 0.1. The AUC25 [2, 13] was 0.093, the AUC25 [2, 14] was 0.0796 and the AUC25 [2, 15] was 0.0905. For the same molecule, the AUC25 [2, 16] was 0.0772, the AUC25 [2, 17] was 0.0684 and the AUC25 [2, 18] was 0.0437. For the same molecule, the AUC25 [2, 20] was 0.0814, the AUC25 [2, 21] was 0.0576 and the AUC25 [2, 22] was 0.0385. For the same molecule, the GRinf [3, 9] was -0.0959, the GRinf [3, 10] was -0.261 and the GRinf [3, 11] was 0.0824. For the same molecule, the GRinf [3, 12] was 0.0686, the GRinf [3, 13] was 0.296 and the GRinf [3, 14] was -0.0493. It also gave a GRinf [3, 15] of -0.416, a GRinf [3, 16] of -0.773 and a GRinf [3, 17] of 0.176. The GRinf [3, 18] was -0.0601, the GRinf [3, 19] was -0.261 and the GRinf [3, 20] was 0.161. It also gave a GRinf [3, 21] of 0.0731 and a GRinf [3, 22] of 0.0202.

In the case of `CO[C@H]1/C=C/O[C@@]2(C)Oc3c(C)c(O)c4c(O)c(c(/C=N/N5CCN(C6CCCC6)CC5)c(O)c4c3C2=O)NC(=O)/C(C)=C\C=C\[C@H](C)[C@H](O)[C@@H](C)[C@@H](O)[C@@H](C)[C@H](OC(C)=O)[C@@H]1C` [rifapentine], the Einf [1, 9] is reported as 0.831, the Einf [1, 10] is reported as 0.974 and the Einf [1, 11] is reported as 0.891. It also gave an Einf [1, 12] of 0.942, an Einf [1, 13] of 0.553 and an Einf [1, 14] of 0.861. It also gave an Einf [1, 15] of 0.877, an Einf [1, 16] of 1 and an Einf [1, 17] of 0.908. It also gave an Einf [1, 18] of 0.989, an Einf [1, 19] of 0.973 and an Einf [1, 20] of 0.894. It also gave an Einf [1, 21] of 0.855, an Einf [1, 22] of 0.937 and an AUC25 [2, 9] of 0.0584. For the same molecule, the AUC25 [2, 10] was 0.0625, the AUC25 [2, 11] was 0.0929 and the AUC25 [2, 12] was 0.0749. The AUC25 [2, 13] was 0.104, the AUC25 [2, 14] was 0.065 and the AUC25 [2, 15] was 0.0607. It also gave an AUC25 [2, 16] of 0.053, an AUC25 [2, 17] of 0.0644 and an AUC25 [2, 18] of 0.0566. It also gave an AUC25 [2, 20] of 0.0489, an AUC25 [2, 21] of 0.0524 and an AUC25 [2, 22] of 0.0266. It also gave a GRinf [3, 9] of -0.0781, a GRinf [3, 10] of -0.181 and a GRinf [3, 11] of 0.117. It also gave a GRinf [3, 12] of 0.0762, a GRinf [3, 13] of 0.164 and a GRinf [3, 14] of -0.00856. It also gave a GRinf [3, 15] of -0.186, a GRinf [3, 16] of -0.735 and a GRinf [3, 17] of 0.218. For the same molecule, the GRinf [3, 18] was -0.11, the GRinf [3, 19] was -0.197 and the GRinf [3, 20] was 0.0516. It also gave a GRinf [3, 21] of 0.056 and a GRinf [3, 22] of 0.0374.

With `CO[C@H]1/C=C/O[C@@]2(C)Oc3c(C)c(O)c4c(O)c(c(/C=N/N5CCN(C6CCCC6)CC5)c(O)c4c3C2=O)NC(=O)/C(C)=C\C=C\[C@H](C)[C@H](O)[C@@H](C)[C@@H](O)[C@@H](C)[C@H](OC(C)=O)[C@@H]1C` [rifapentine] + CO[C@H]1/C=C/O[C@@]2(C)Oc3c(C)c(O)c4c(O)c(c(/C=N/N5CCN(C)CC5)c(O)c4c3C2=O)NC(=O)/C(C)=C\C=C\[C@H](C)[C@H](O)[C@@H](C)[C@@H](O)[C@@H](C)[C@H](OC(C)=O)[C@@H]1C [rifampicin] the FIC90 [4, 10] was -0.186, the FIC90 [4, 12] was 0.00202 and the FIC90 [4, 14] was 0.16. The FIC90 [4, 15] was 0.413, the FIC90 [4, 16] was -0.0799 and the FIC90 [4, 17] was -0.356. The FIC90 [4, 18] was -0.0772, the FIC90 [4, 19] was -0.3 and the FIC90 [4, 20] was 0.54. The FIC90 [4, 22] was -0.019, the FIC50 [5, 9] was 0.179 and the FIC50 [5, 10] was 0.0519. It also gave an FIC50 [5, 11] of 0.0385, an FIC50 [5, 12] of -0.077 and an FIC50 [5, 13] of -0.0632. The FIC50 [5, 14] was -0.246, the FIC50 [5, 15] was -0.073 and the FIC50 [5, 16] was 0.0935. It also gave an FIC50 [5, 17] of 0.0837, an FIC50 [5, 18] of 0.0345 and an FIC50 [5, 20] of 0.198. The FIC50 [5, 21] was 0.231, the FIC50 [5, 22] was -0.0221 and the Einf [6, 9] was 0.837. It also gave an Einf [6, 10] of 0.967, an Einf [6, 11] of 0.887 and an Einf [6, 12] of 0.958. The Einf [6, 13] was 0.57, the Einf [6, 14] was 0.883 and the Einf [6, 15] was 0.921. It also gave an Einf [6, 16] of 0.999, an Einf [6, 17] of 0.902 and an Einf [6, 18] of 0.979. For the same molecule, the Einf [6, 19] was 0.934, the Einf [6, 20] was 0.907 and the Einf [6, 21] was 0.815. For the same molecule, the Einf [6, 22] was 0.921, the AUC25 [7, 9] was 0.0835 and the AUC25 [7, 10] was 0.0696. It also gave an AUC25 [7, 11] of 0.101, an AUC25 [7, 12] of 0.0929 and an AUC25 [7, 13] of 0.125. The AUC25 [7, 14] was 0.085, the AUC25 [7, 15] was 0.0915 and the AUC25 [7, 16] was 0.0669. The AUC25 [7, 17] was 0.062, the AUC25 [7, 18] was 0.0354 and the AUC25 [7, 20] was 0.0721. The AUC25 [7, 21] was 0.0488, the AUC25 [7, 22] was 0.0288 and the GRinf [8, 9] was -0.028. The GRinf [8, 10] was -0.182, the GRinf [8, 11] was 0.0983 and the GRinf [8, 12] was 0.0599. For the same molecule, the GRinf [8, 13] was 0.181, the GRinf [8, 14] was -0.0494 and the GRinf [8, 15] was -0.231. It also gave a GRinf [8, 16] of -0.64, a GRinf [8, 17] of 0.162 and a GRinf [8, 18] of -0.0822. The GRinf [8, 19] was -0.195, the GRinf [8, 20] was 0.101 and the GRinf [8, 21] was 0.136. For the same molecule, the GRinf [8, 22] was 0.0885.
